Assay [1] concerns the target T1, human GPR4 (Homo sapiens, UniProt P46093).
T1 construct: expressed in transfected cells
In words: Cell-based assay for human GPR4 activity (pH-induced cAMP formation, HTRF). The conditions noted are these: HeLa cells stably expressing human GPR4, pH-induced cAMP formation. Summed up: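 HeLa cells stably expressing human GPR4, pre-incubated 15 min at room temperature with compound in pH 8 buffer containing 2 mM IBMX. Buffer B added to set the final stimulation pH, then a further 15 min at room temperature; cAMP read by HTRF.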
On the technique in general: Cyclic AMP is a second messenger, typically raised through Gs and lowered through Gi signalling.

In assay [2] the test system is VEGF-induced angiogenesis. Kind of assay: GPR4 activity in VEGF-induced angiogenesis (angiogenesis growth factor implant model). The format is in vivo. Conditions: mice, 10 mg/kg (qd) po, chamber tissue weighed on 4th day after implantation.
Procedure: The functional activity of GPR4 was determined in the angiogenesis growth factor implant model. Porous tissue chambers made of perfluoro-alkoxy-Teflon were filled with 0.8% agar and 20 U/ml heparin supplemented with or without 8 μg/ml recombinant human VEGF. The solutions were maintained at 39° C. prior to the filling procedure. Mice were anesthetized using 3% isoflurane inhalation. For subcutaneous implantation, a small skin incision was made at the base of the tail to allow the insertion of an implant trocar. The chamber was implanted under aseptic conditions through the small incision onto the back of the animal. The skin incision was closed by wound clips. On the 4th day after implantation, animals were sacrificed using CO2. Chambers were excised and the vascularized fibrous tissue formed around each implant carefully removed and weighed. Body weight was used to monitor the general condition of the mice. The compounds were applied po at the day of the chamber implantation.
The test system of assay [3] is mouse antigen-induced arthritis. Kind of assay: Mouse antigen-induced arthritis model. Conditions: female OFA-1 mice, 50 mg/kg (bid) po from day 0 for 7 days, R/L knee swelling ratio AUC vs control. In kind it is in vivo. As for the experimental part:
c) GPR4 Activity in Mouse Antigen-Induced Arthritis Model
Female OFA-1 mice were sensitized i.d. on the back at two sites to methylated bovine serum albumin (mBSA) homogenize 1:1 with complete Freund's adjuvant on days—21 and —14 (0.1 ml containing 1 mg/ml mBSA). On day 0, the right knee receives 10 μl of 10 mg/ml mBSA in 5% glucose solution (antigen-injected knee), while the left knee receives 10 μl of 5% glucose solution alone (vehicle-injected knee). The diameters of the left and right knees were then measured using callipers immediately after the intra-articular injections and again on days 2, 4, 7, 9, 11 and 14. Vehicle and compounds were applied po starting at day 0 for 7 days. Right knee swelling was evaluated relative to left knee swelling, and the R/L knee swelling ratio plotted against time to give area under the curve (AUC) graphs for control and treatment groups. The percentage inhibition of the individual treatment group AUCs were calculated vs the control group AUC (0% inhibition) using an excel spreadsheet. On day 7, the mice were killed by CO2 inhalation and the right and left knees removed and processed for histological analysis.

Structures can show the parent of a compound that is named as a salt.

This passage reports IC50, Δ tissue weight and Δ swelling ratio results from US20090291942A1, “IMIDAZO PYRIDINE DERIVATIVES” (priority 2008, published 2009).

T1 sequence (P46093 whole entry): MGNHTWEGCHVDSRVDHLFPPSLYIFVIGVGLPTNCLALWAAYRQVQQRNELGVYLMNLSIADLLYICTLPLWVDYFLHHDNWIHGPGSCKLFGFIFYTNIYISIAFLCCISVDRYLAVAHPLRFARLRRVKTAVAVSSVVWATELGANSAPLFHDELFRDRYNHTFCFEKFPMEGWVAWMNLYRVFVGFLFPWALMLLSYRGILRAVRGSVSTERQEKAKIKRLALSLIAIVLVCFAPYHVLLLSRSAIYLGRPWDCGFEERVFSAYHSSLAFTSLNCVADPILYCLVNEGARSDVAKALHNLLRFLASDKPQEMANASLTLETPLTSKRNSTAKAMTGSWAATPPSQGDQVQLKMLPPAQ

What is called IC50 is the concentration at which inhibition is half-maximal. A low value points to greater potency in that assay. As to `CCc1nc2c(C)cc(C)nc2n1Cc1ccc(/C=C/CN2CCC(N3CCCCC3)CC2)cc1` [Example 33, 1′-{(E)-3-[4-(2-Ethyl-5,7-dimethyl-imidazo[4,5-b]pyridin-3-ylmethyl)-phenyl]-allyl}-[1,4′]bipiperidinyl dihydrochloride], the IC50 in assay [1] is 71 nM. This compound yielded a Δ tissue weight in assay [2] of 45%. In addition, the Δ swelling ratio in assay [3] is recorded as 59%.
In assay [1], `COC(=O)C1CCN(C/C=C/c2ccc(Cn3c(C(F)(F)F)nc4c(C)cc(C)nc43)cc2)CC1` [Example 90, 1-{(E)-3-[4-(5,7-Dimethyl-2-trifluoromethyl-imidazo[4,5-b]pyridin-3-ylmethyl)-phenyl]-allyl}-piperidine-4-carboxylic acid methyl ester hydrochloride] returned an IC50 of 568 nM.
Same read-out and setting: in the case of `Cc1cc(C)c2nc(C(F)(F)F)n(Cc3ccc(/C=C/CN4CCN(C(C)C)CC4)cc3)c2n1` [Example 91, 3-{4-[(E)-3-(4-Isopropyl-piperazin-1-yl)-propenyl]-benzyl}-5,7-dimethyl-2-trifluoromethyl-3H-imidazo[4,5-b]pyridine dihydrochloride] it was 140 nM.
Still for that read-out and setting: in the case of `Cc1cc(C)c2nc(C(F)(F)F)n(Cc3ccc(/C=C/CN4CCN(C(C)(C)C)CC4)cc3)c2n1` [Example 92, 3-{4-[(E)-3-(4-tert-Butyl-piperazin-1-yl)-propenyl]-benzyl}-5,7-dimethyl-2-trifluoromethyl-3H-imidazo[4,5-b]pyridine] it was 30 nM.
`CCc1nc2c(C)cc(C)nc2n1Cc1ccc(/C=C(\F)CN2CCC(N3CCCCC3)CC2)cc1` [Example 93, 1′-{(Z)-3-[4-(2-Ethyl-5,7-dimethyl-imidazo[4,5-b]pyridin-3-ylmethyl)-phenyl]-2-fluoro-allyl}-[1,4′]bipiperidinyl dihydrochloride]: half-maximal inhibition in assay [1] (IC50) was put at 29 nM.
Regarding `CCc1nc2c(C)cc(C)nc2n1Cc1ccc(/C=C(\F)CN2CCN(C(C)C)CC2)cc1` [Example 94, 2-Ethyl-3-{4-[(Z)-2-fluoro-3-(4-isopropyl-piperazin-1-yl)-propenyl]-benzyl}-5,7-dimethyl-3H-imidazo[4,5-b]pyridine dihydrochloride], the IC50 in assay [1] came to 24 nM.
On the same count and under the same terms, in the case of `CCc1nc2c(C)cc(C)nc2n1Cc1ccc(/C=C(\F)CN2CCN(C(C)(C)C)CC2)cc1` [Example 95, 3-{4-[(Z)-3-(4-tert-Butyl-piperazin-1-yl)-2-fluoro-propenyl]-benzyl}-2-ethyl-5,7-dimethyl-3H-imidazo[4,5-b]pyridine dihydrochloride] it was 31 nM.
The same measure, in the same setting: in the case of `CCc1nc2c(C)cc(C)nc2n1Cc1ccc(/C=C/C(=O)N2CCC(N(CC)CC)CC2)cc1` [Example 96, (E)-1-(4-Diethylamino-piperidin-1-yl)-3-[4-(2-ethyl-5,7-dimethyl-imidazo[4,5-b]pyridin-3-ylmethyl)-phenyl]-propenone] it was 994 nM; in that of `CCc1nc2c(C)cc(C)nc2n1Cc1ccc(/C=C/C(=O)N2CCC(N3CCCCC3)CC2)cc1` [Example 97, (E)-1-[1,4′]Bipiperidinyl-1′-yl-3-[4-(2-ethyl-5,7-dimethyl-imidazo[4,5-b]pyridin-3-ylmethyl)-phenyl]-propenone hydrochloride], 445 nM.
Regarding `CCc1nc2c(C)cc(C)nc2n1Cc1ccc(/C=C/C(=O)N2CCC(N3CCOCC3)CC2)cc1` [Example 98, (E)-3-[4-(2-Ethyl-5,7-dimethyl-imidazo[4,5-b]pyridin-3-ylmethyl)-phenyl]-1-(4-morpholin-4-yl-piperidin-1-yl)-propenone], half-maximal inhibition in assay [1] (IC50) required 328 nM.
Same read-out and setting: the same measure for `CCc1nc2c(C)cc(C)nc2n1Cc1ccc(C(=O)NCCCCN2CCCC2)cc1` [Example 99, 4-(2-Ethyl-5,7-dimethyl-imidazo[4,5-b]pyridin-3-ylmethyl)-N-(4-pyrrolidin-1-yl-butyl)-benzamide]: 997 nM; for `CCc1nc2c(C)cc(C)nc2n1Cc1ccc(C(=O)NCCCCN2CCCCCC2)cc1` [Example 100, N-(4-Azepan-1-yl-butyl)-4-(2-ethyl-5,7-dimethyl-imidazo[4,5-b]pyridin-3-ylmethyl)-benzamide]: 495 nM; for `CCc1nc2c(C)cc(C)nc2n1Cc1ccc(NC(=O)CCCCN2CCCC2)cc1` [Example 101, 5-Pyrrolidin-1-yl-pentanoic acid [4-(2-ethyl-5,7-dimethyl-imidazo[4,5-b]pyridin-3-ylmethyl)-phenyl]-amide]: 364 nM.
Still for that read-out and setting: the same measure for `CCc1nc2c(C)cc(C)nc2n1Cc1ccc(NC(=O)CCCCN2CCCCC2)cc1` [Example 102, 5-Piperidin-1-yl-pentanoic acid [4-(2-ethyl-5,7-dimethyl-imidazo[4,5-b]pyridin-3-ylmethyl)-phenyl]-amide]: 241 nM; for `CCc1nc2c(C)cc(C)nc2n1Cc1ccc(/C=C/CCN2CCN(C(C)(C)C)CC2)cc1` [Example 104, 3-{4-[(E)-4-(4-tert-Butyl-piperazin-1-yl)-but-1-enyl]-benzyl}-2-ethyl-5,7-dimethyl-3H-imidazo[4,5-b]pyridine dihydrochloride]: 60 nM; for `CCc1nc2c(C)cc(C)nc2n1Cc1ccc(/C=C/CCN2CCC(N3CCCCC3)CC2)cc1` [Example 105, 1′-{(E)-4-[4-(2-Ethyl-5,7-dimethyl-imidazo[4,5-b]pyridin-3-ylmethyl)-phenyl]-but-3-enyl}-[1,4′]bipiperidine]: 115 nM.
Still for that read-out and setting: the same measure for `CCc1nc2c(C)cc(C)nc2n1Cc1ccc(/C=C/CCN2CCN(C(C)C)CC2)cc1` [Example 106, 2-Ethyl-3-{4-[(E)-4-(4-isopropyl-piperazin-1-yl)-but-1-enyl]-benzyl}-5,7-dimethyl-3H-imidazo[4,5-b]pyridine dihydrochloride]: 98 nM; for `CCc1nc2c(C)cc(C)nc2n1Cc1ccc(/C=C/CCN2CCC(N3CCN(C)CC3)CC2)cc1` [Example 107, 2-Ethyl-5,7-dimethyl-3-{4-[(E)-4-[4-(4-methyl-piperazin-1-yl)-piperidin-1-yl]-but-1-enyl]-benzyl}-3H-imidazo[4,5-b]pyridine]: 191 nM; for `CCc1nc2c(C)cc(C)nc2n1Cc1ccc(/C=C/CCN2CCC(N3CCOCC3)CC2)cc1` [Example 108, 2-Ethyl-5,7-dimethyl-3-{4-[(E)-4-(4-morpholin-4-yl-piperidin-1-yl)-but-1-enyl]-benzyl}-3H-imidazo[4,5-b]pyridine dihydrochloride]: 447 nM.
Consider `CCc1nc2c(C)cc(C)nc2n1Cc1ccc(/C=C/CCn2ccnc2)cc1` [Example 109], for which the IC50 in assay [1] amounted to 370 nM.
Same read-out and setting: the same measure for `CCc1nc2c(C)cc(C)nc2n1Cc1ccc(CCCCN2CCN(C(C)(C)C)CC2)cc1` [Example 110, 3-{4-[4-(4-tert-Butyl-piperazin-1-yl)-butyl]-benzyl}-2-ethyl-5,7-dimethyl-3H-imidazo[4,5-b]pyridine dihydrochloride]: 98 nM; for `CCc1nc2c(C)cc(C)nc2n1Cc1ccc(CCCCN2CCN(C(C)C)CC2)cc1` [Example 111, 2-Ethyl-3-{4-[4-(4-isopropyl-piperazin-1-yl)-butyl]-benzyl}-5,7-dimethyl-3H-imidazo[4,5-b]pyridine dihydrochloride]: 412 nM.
Same read-out and setting: the same measure for `CCc1nc2c(C)cc(C)nc2n1Cc1ccc(CCCCN2CCC(N3CCCCC3)CC2)cc1` [Example 112, 1′-{4-[4-(2-Ethyl-5,7-dimethyl-imidazo[4,5-b]pyridin-3-ylmethyl)-phenyl]-butyl}-[1,4′]bipiperidine]: 59 nM.
